{
  "source": "patent US20240174596A1",
  "about": "(Northwestern University, priority 2021, published 2024)",
  "key": {"[1]": {"target": "T1, hOAT (Homo sapiens, UniProt P04181)", "T1 construct": "made in house; host or cells: E. coli BL21(DE3)", "T1 sequence (P04181 26-439)": "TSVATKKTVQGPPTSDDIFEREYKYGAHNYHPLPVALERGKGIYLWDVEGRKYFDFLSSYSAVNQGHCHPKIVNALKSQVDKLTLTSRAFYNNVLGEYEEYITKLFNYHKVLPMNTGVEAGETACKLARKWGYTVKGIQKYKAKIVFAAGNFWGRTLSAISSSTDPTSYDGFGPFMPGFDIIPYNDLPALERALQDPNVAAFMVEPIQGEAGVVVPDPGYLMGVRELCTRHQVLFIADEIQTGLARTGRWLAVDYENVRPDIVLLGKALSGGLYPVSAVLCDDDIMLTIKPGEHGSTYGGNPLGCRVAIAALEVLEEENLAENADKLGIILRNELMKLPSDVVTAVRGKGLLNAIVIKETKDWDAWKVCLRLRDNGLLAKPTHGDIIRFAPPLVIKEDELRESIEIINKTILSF", "assay": "Fluoride ion release assay", "format": "biochemical", "experimental": "The fluoride ion release assay was conducted using previous protocols.^10 The final concentration of enzyme in the sample was determined via BCA protein assay kit (Pierce, cat: 23225). A calibration curve of voltage (V, mV) was generated from varying concentrations of NaF (F, μM). For accurate detection of fluoride ion concentration, 10 μM of fluoride ion was added to each control and sample The number of fluoride ions released per active site was calculated by the ratio of the fluoride ion release concentration and enzyme concentration."}, "[2]": {"target": "T1, hOAT", "assay": "Time-dependent dialysis of inhibited hOAT", "format": "biochemical", "conditions": "up to 48 h against buffer with excessive PLP and α-KG", "experimental": "Plausible Inactivation Mechanisms of SS-1-148 with hOAT. The irreversibility of the inhibition of hOAT by SS-1-148 was evaluated by a time-dependent dialysis experiment up to 48 h against a buffer consisting of excessive PLP and α-KG (FIG. 10). […] To reveal the structure of the final product in the inactivation reaction, we co-crystallized hOAT with an excessive amount of SS-1-148. […] It also contains three copies of the protein monomer in one asymmetric unit. Similar to the soaking crystal structure shown in FIG. 4A, PLP is covalently linked to SS-1-148 moiety in the cocrystal structure. However, no covalent bond is noticed between Lys292 and the final product. Moreover, in the published crystal structure of the native enzyme (holo-hOAT), Arg413 typically forms a salt bridge with Glu235, which is found intact for several cocrystals of hOAT with different inactivators.^14, 23, 26 In the hOAT/SS-1-148 soaking result (FIG. 4A), the salt bridge of Arg413-Glu235 is broken due to the existence of an alternative salt bridge between the carboxylate of one intermediate and Arg413. […] Instead, Arg413, Gln266, and the final product are hydrogen-bonded to the same water molecule.\nThe dialysis experiment was conducted using previous protocols.^8-10"}, "[3]": {"target": "T1, hOAT", "assay": "Denaturing intact protein mass spectrometry of inactivated hOAT", "conditions": "hOAT fully inactivated; denaturing intact LC-MS", "from_the_text": "The majority of hOAT remained unmodified (FIG. 5A, top) in comparison with native hOAT as a control (FIG. 5A, bottom). […] However, one would expect a higher abundance of covalently adducted enzyme under these conditions where the enzyme is fully inactivated. This finding thus supported a major non-covalent, inactivation mechansim between hOAT and SS-1-148.\nTreated and unmodified purified hOAT samples were desalted ten times with Optima-grade water (Fisher) on Amicon Ultra 10 KDa molecular weight spin filters (Millipore). To chromatographically resolve protein. 0.5 μg of protein was loaded onto a 3 cm PLRP-S (Agilent) trap column using a Dionex Ultimate3000 liquid chromatography system (Thermo Fisher). The protein analyte was washed with a 10-min isocratic gradient of 10% Solvent B (95% acetonitrile/5% H2O/0.2% formic acid) and 90% Solvent A (5% acetonitrile/95% H20/0.2% formic acid). Protein was resolved on an in-house made 75 μm ID×15 cm long nanopore capillary column packed with PLRP-S resin (Agilent). […]"}, "[4]": {"assay": "Liver microsomal stability, human", "format": "in vitro ADME"}, "[5]": {"assay": "Plasma protein binding, human", "format": "in vitro ADME"}, "[6]": {"target": "hERG (Homo sapiens, UniProt Q12809)", "sequence (Q12809 whole entry)": "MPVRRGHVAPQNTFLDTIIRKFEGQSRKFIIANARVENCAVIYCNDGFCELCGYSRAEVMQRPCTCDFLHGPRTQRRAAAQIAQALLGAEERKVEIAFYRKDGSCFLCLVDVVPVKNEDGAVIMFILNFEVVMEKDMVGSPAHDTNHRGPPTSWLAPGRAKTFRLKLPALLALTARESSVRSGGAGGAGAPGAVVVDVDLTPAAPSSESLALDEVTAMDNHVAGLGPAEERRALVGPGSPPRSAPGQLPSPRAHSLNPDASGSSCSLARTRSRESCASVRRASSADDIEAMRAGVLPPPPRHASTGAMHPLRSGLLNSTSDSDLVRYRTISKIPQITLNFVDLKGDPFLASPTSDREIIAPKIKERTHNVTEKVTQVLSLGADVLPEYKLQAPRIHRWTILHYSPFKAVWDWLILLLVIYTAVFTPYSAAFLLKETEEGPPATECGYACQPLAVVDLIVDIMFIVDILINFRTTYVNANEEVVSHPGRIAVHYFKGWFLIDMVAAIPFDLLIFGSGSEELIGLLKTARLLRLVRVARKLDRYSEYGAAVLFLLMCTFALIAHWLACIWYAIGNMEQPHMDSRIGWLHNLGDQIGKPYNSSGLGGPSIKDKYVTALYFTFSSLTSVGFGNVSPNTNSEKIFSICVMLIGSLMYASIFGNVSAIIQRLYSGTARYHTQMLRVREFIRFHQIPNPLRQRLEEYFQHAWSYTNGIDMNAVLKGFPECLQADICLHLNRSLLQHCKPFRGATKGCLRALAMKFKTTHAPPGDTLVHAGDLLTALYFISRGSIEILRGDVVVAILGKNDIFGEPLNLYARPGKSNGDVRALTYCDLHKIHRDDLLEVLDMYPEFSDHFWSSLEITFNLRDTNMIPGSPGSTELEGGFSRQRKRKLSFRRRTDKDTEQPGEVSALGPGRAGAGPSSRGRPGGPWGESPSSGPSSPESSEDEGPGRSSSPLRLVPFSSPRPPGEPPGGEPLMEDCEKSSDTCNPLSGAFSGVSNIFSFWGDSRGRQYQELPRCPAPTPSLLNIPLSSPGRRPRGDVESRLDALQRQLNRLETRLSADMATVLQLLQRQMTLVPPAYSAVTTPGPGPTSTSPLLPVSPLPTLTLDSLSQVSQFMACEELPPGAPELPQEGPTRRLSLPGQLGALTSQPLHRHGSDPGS", "assay": "hERG test", "format": "in vitro ADME"}, "[7]": {"target": "CYP 2C9 (Homo sapiens, UniProt P11712)", "sequence (P11712 whole entry)": "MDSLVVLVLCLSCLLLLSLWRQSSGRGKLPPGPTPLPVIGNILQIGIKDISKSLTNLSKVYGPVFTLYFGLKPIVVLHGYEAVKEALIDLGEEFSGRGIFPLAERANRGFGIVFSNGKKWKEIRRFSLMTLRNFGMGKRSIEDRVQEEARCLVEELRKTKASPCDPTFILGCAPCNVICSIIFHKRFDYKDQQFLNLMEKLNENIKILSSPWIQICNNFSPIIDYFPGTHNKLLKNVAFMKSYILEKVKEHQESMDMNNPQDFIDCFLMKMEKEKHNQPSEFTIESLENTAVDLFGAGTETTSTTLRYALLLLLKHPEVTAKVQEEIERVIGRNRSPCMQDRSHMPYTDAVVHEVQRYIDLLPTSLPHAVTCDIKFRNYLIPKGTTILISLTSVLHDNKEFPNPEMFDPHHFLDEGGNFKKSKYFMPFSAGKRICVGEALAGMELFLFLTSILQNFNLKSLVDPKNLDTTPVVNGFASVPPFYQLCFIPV", "assay": "CYP inhibition 2C9", "format": "in vitro ADME"}, "[8]": {"target": "CYP 2C19 (Homo sapiens, UniProt P33261)", "sequence (P33261 whole entry)": "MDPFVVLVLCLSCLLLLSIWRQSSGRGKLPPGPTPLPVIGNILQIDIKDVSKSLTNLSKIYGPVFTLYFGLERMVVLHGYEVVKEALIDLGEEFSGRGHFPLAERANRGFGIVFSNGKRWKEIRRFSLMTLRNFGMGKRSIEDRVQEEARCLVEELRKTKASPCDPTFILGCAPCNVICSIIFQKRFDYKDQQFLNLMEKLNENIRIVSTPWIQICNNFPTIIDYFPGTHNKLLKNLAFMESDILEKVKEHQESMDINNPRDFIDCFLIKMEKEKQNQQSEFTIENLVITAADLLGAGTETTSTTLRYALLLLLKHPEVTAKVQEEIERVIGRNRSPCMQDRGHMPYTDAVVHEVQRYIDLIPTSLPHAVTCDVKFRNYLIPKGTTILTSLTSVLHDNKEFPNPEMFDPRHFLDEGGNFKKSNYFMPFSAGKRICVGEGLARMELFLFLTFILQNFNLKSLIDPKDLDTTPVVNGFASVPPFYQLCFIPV", "assay": "CYP inhibition 2C19", "format": "in vitro ADME"}, "[9]": {"target": "CYP 3A4 (Homo sapiens, UniProt P08684)", "sequence (P08684 whole entry)": "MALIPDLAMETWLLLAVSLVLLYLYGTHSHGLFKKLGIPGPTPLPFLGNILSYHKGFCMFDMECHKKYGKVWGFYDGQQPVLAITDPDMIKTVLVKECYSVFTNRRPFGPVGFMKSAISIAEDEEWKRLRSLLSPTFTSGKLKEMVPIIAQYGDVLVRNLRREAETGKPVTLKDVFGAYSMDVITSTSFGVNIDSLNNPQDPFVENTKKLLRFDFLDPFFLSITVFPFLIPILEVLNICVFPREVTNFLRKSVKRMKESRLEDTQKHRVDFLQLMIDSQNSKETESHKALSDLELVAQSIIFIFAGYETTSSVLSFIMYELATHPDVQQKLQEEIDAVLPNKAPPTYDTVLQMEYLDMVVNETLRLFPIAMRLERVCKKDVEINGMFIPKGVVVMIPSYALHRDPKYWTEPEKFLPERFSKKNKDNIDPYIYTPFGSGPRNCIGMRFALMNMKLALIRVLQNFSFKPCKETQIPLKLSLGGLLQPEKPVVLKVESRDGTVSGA", "assay": "CYP inhibition 3A4", "format": "in vitro ADME"}, "[10]": {"assay": "Brain/plasma PK studies", "format": "in vivo", "conditions": "brain, read-out: B/P ratio"}},
  "note": "Counter-ions that a name gives are not always drawn. Like-named read-outs stand apart in the source and are kept apart here.",
  "data": [
    {"molecule": "N[C@H]1C=C(C(=O)O)CC1(F)F", "note": "[SS-1-148, (S)-3-Amino-4,4-difluorocyclopent-1-enecarboxylic acid hydrochloric acid salt]", "values": [
      {"measurement": "fluoride ion released per inactivation event", "setting": "[1]", "value": "33.9±0.8", "unit": "equivalents"},
      {"measurement": "Fluoride ion release", "setting": "[1]; without α-KG, triplicate, mean with standard deviation", "value": "33.9 ± 0.8"},
      {"measurement": "remaining activity of hOAT after dialysis", "setting": "[2]", "value": "unchanged"},
      {"measurement": "hOAT covalently modified", "setting": "[3]", "value": "~16", "unit": "%"},
      {"measurement": "Liver microsomal stability (t1/2) Human", "setting": "[4]", "value": "N/C"},
      {"measurement": "fraction unbound", "setting": "[5]", "value": 1},
      {"measurement": "IC50", "setting": "[6]", "value": "> 30", "unit": "µM"},
      {"measurement": "IC50", "setting": "[7]", "value": "> 100", "unit": "µM"},
      {"measurement": "IC50", "setting": "[8]", "value": "> 100", "unit": "µM"},
      {"measurement": "IC50", "setting": "[9]", "value": "> 100", "unit": "µM"},
      {"measurement": "Kp at 0.25 h", "setting": "[10]; IV (5 mg/kg)", "value": 0.2},
      {"measurement": "Kp at 0.25 h", "setting": "[10]; PO (30 mg/kg)", "value": 0.14},
      {"measurement": "Kp at 2 h", "setting": "[10]; PO (30 mg/kg), 2 h", "value": 0.26}
    ]}
  ]
}
